Experimental data as given in publication PMC6651170, “New HSV-1 Anti-Viral 1′-Homocarbocyclic Nucleoside Analogs with an Optically Active Substituted Bicyclo[2.2.1]Heptane Fragment as a Glycoside Moiety” (Molecules, 2019).
In brackets after ≈: the same amount, converted by molar mass. Read-outs that look alike come from different tables or passages of the source.

Assays:
in vitro [1] = conditions: African green monkey
Enterovirus 71 = experiment: microbe, parasite or virus in culture; format: cell-based; conditions: read-out: IC50 Enterovirus 71
[2] = system: human adenovirus type 5 (AdV5); experiment: microbe, parasite or virus in culture; format: cell-based; conditions: read-out: IC50 Human Adenovirus Type 5
Yellow Fever Virus = experiment: microbe, parasite or virus in culture; format: cell-based; conditions: read-out: IC50 Yellow Fever Virus
Chikungunya Virus = experiment: microbe, parasite or virus in culture; format: cell-based; conditions: read-out: IC50 Chikungunya Virus
in vitro [3] = experiment: in vitro
in vitro [4] = experiment: in vitro; remark: listed apart in the source
in vitro [5] = experiment: in vitro; remark: listed apart in the source
[6] = system: Influenza virus (Flu A, strain A/Puerto Rico/8/34 (H1N1)); experiment: microbe, parasite or virus in culture; format: cell-based; conditions: read-out: IC50 Influenza Virus
in vitro [7] = conditions: dog
[8] = system: herpes simplex virus type 1 (HSV-1); experiment: microbe, parasite or virus in culture; format: cell-based; conditions: for IC50: read-out: IC50 Herpes Simplex Virus Type 1
EpsteinBarr virus = conditions: read-out: IC50 against EpsteinBarr virus; cited from earlier work
HCMV = conditions: read-out: IC50 against HCMV; cited from earlier work
VZV = conditions: cited from earlier work
herpes = conditions: cited from earlier work
Molt4/C8 = conditions: cited from earlier work
L1210/0 = conditions: cited from earlier work
[9] = system: cytomegalovirus DAVIS 07/1; conditions: read-out: EC50 against cytomegalovirus DAVIS 07/1 strain; cited from earlier work
VZV/TK^- strain = conditions: read-out: EC50 against VZV/TK- strain; cited from earlier work
cytomegalovirus AD169 = conditions: read-out: EC50 against cytomegalovirus AD169 strain; cited from earlier work
coxsackievirus B4 = conditions: cited from earlier work
cells [10] = system: cells
cells [11] = system: cells; remark: listed apart in the source
cells [12] = system: cells; remark: listed apart in the source
[13] = CC50 (Herpes Simplex Virus Type 1)
[14] = Human mastadenovirus C, Vero, 72 h
[15] = unidentified influenza virus, H1N1, MDCK, 48 h
[16] = Human alphaherpesvirus 1, Vero, 72 h

| Compound | CC50 (in vitro [1]; [13]) | CC50 (in vitro [1]; CC50 (Human Adenovirus Type 5)) | IC50 (Enterovirus 71; Enterovirus A) | IC50 [2, 14] | IC50 (Yellow Fever Virus; Yellow fever virus) | IC50 (Chikungunya Virus; Chikungunya virus) | CC50 (in vitro [3]) | CC50 (in vitro [4]) | CC50 (in vitro [5]) | IC50 [6, 15] | CC50 (in vitro [7]) | IC50 [8, 16] | also measured |
| --- | --- | --- | --- | --- | --- | --- | --- | --- | --- | --- | --- | --- | --- |
| OC1C[C@H]2[C@H](Cn3cnc4c(N5CCOCC5)ncnc43)[C@@H]1C[C@@H]2Cl (stereo partly drawn) [Compound 6h, (1S,4S,5S,7R)-5-Chloro-7-((6-morpholino-9H-purin-9-yl)methyl)bicyclo[2.2.1]heptan-2-ol] | > 600 µM | > 600 µM | > 100 µM | > 600 µM | > 100 µM | > 100 µM | > 100 µM | > 100 µM | > 100 µM | 196 ± 15 µM | > 600 µM | 341 ± 40 µM |  |
| Oc1ccc(CCNc2ncnc3c2ncn3C[C@H]2[C@@H]3CC(O)[C@H]2C[C@@H]3Cl)cc1 (stereo partly drawn) [Compound 6i, (1S,4S,5S,7R)-5-Chloro-7-((6-((4-hydroxyphenethyl)amino)-9H-purin-9-yl)methyl)bicyclo[2.2.1]heptan-2-ol] | 447 ± 31 µM | 217 ± 17 µM | 79 µM | > 72 µM | > 100 µM | > 100 µM | > 100 µM | > 100 µM | > 100 µM | > 72 µM | 124 ± 9 µM | 155 ± 13 µM |  |
| OC1C[C@H]2[C@H](Cn3cnc4c(NCCc5ccccc5)ncnc43)[C@@H]1C[C@@H]2Cl (stereo partly drawn) [Compound 6k, (1S,4S,5S,7R)-5-Chloro-7-((6-(phenethylamino)-9H-purin-9-yl)methyl)bicyclo[2.2.1]heptan-2-ol] | 185 ± 16 µM | 245 ± 18 µM | 25 ± 5.6 µM | > 75 µM | > 100 µM | > 100 µM | > 100 µM | > 100 µM | > 100 µM | 74 ± 8 µM | 254 ± 21 µM | 48 ± 6 µM |  |
| COc1ncnc2c1ncn2C[C@H]1[C@@H]2CC(O)[C@H]1C[C@@H]2Cl (stereo partly drawn) [Compound 7a, (1S,4S,5S,7R)-5-Chloro-7-((6-methoxy-9H-purin-9-yl)methyl)bicyclo[2.2.1]heptan-2-ol] | > 972 µM | > 972 µM | > 100 µM | > 972 µM | > 100 µM | > 100 µM | > 100 µM | > 100 µM | > 100 µM | 233 ± 33 µM | > 972 µM | > 972 µM |  |
| CCOc1ncnc2c1ncn2C[C@H]1[C@@H]2CC(O)[C@H]1C[C@@H]2Cl (stereo partly drawn) [Compound 7b, (1S,4S,5S,7R)-5-Chloro-7-((6-ethoxy-9H-purin-9-yl)methyl)bicyclo[2.2.1]heptan-2-ol] | > 929 µM | > 929 µM | > 100 µM | > 929 µM | > 100 µM | > 100 µM | > 100 µM | > 100 µM | > 100 µM | > 929 µM | > 929 µM | 524 ± 63 µM |  |
| Nc1ncnc2c1ncn2/C=C1/C[C@H]1CO [III] |  |  |  |  |  |  |  |  |  |  |  |  | IC50 (EpsteinBarr virus): 0.2 µM; IC50 (HCMV): 1 to 2.1 µM |
| O=c1[nH]c(=O)n(CC2(CO)CC2CO)cc1C=CBr (stereo not shown) [II] |  |  |  |  |  |  |  |  |  |  |  |  | anti-VZV activity, IC50 (VZV): 0.027 µg/mL |
| Nc1nc2c(ncn2/C=C2/C[C@H]2CO)c(=O)[nH]1 [IV] |  |  |  |  |  |  |  |  |  |  |  |  | IC50 (EpsteinBarr virus): 0.3 µM; IC50 (HCMV): 0.04 to 2.1 µM |
| Nc1nc2c(ncn2CC2(CO)CC2CO)c(=O)[nH]1 (stereo not shown) [I] |  |  |  |  |  |  |  |  |  |  |  |  | antiherpetic activity in words (herpes): extremely potent antiherpetic activity |
| Nc1nc(Cl)c2nc[nH]c2n1 [V (6-Cl-2-amino-purine)] |  |  |  |  |  |  |  |  |  |  |  |  | IC50 Molt4/C8, cytostatic activity (Molt4/C8): 13.2 µg/mL (≈ 77.8 µM); IC50 L1210/0, cytostatic activity (L1210/0): 16.2 µg/mL (≈ 95.5 µM) |
| Nc1nc(Cl)c2nc[nH]c2n1 [VIII (6-Cl-2-aminopurine)] |  |  |  |  |  |  |  |  |  |  |  |  | EC50 [9]: 0.39 µM; EC50 (VZV/TK^- strain): 2.1 µM; EC50 (cytomegalovirus AD169): 0.44 µM |
| OCC(Cc1ccccc1)Nc1ncnc2c1ncn2C1CC2C(Cl)CC1C2CO (stereo not shown) [Xc] |  |  |  |  |  |  |  |  |  |  |  |  | EC50 against coxsackievirus B4 (coxsackievirus B4): 0.6 µg/mL (≈ 1.4 µM) |
| Nc1nc(O)c2ncn(COC(CO)CO)c2n1 [ganciclovir] |  |  |  |  |  |  |  |  |  |  |  |  | EC50 [9]: 0.4 µM; EC50 (cytomegalovirus AD169): 0.25 µM |
| (1S,4S,5S,7R)-5-Chloro-7-((6-((4-hydroxyphenethyl)amino)-9H-purin-9-yl)methyl)bicyclo[2.2.1]heptan-2-ol [Compound 6j] |  |  |  |  |  |  |  |  |  |  |  |  | CC50 (cells [10]): > 100 µM; IC50 (Enterovirus 71): 42 ± 3.2 µM; IC50 [2]: > 70 µM; CC50 (cells [11]): > 100 µM; CC50 (cells [12]): > 100 µM; IC50 (Yellow Fever Virus): > 100 µM; IC50 (Chikungunya Virus): > 100 µM; CC50 (MDCK cells): 467 ± 28 µM; IC50 [6]: > 234 µM; activity against HSV-1 in words [8]: active against herpes; IC50 [8]: 15 ± 2 µM |
